Measured values from patent publication US20050096360A1, “Inhibitors of semicarbazide-sensitive amine oxidase (SSAO) and VAP-1 mediated adhesion useful for treatment of diseases” (priority 2003, published 2005).

Target: T1, SSAO activity in rat aorta and lung (Rattus norvegicus, UniProt O08590)
T1 construct: the animals were euthanized and their aortas and lungs removed and frozen in liquid nitrogen; from tissue; host or cells: aorta and lung of female Sprague Dawley rats
T1 sequence (O08590 1-763): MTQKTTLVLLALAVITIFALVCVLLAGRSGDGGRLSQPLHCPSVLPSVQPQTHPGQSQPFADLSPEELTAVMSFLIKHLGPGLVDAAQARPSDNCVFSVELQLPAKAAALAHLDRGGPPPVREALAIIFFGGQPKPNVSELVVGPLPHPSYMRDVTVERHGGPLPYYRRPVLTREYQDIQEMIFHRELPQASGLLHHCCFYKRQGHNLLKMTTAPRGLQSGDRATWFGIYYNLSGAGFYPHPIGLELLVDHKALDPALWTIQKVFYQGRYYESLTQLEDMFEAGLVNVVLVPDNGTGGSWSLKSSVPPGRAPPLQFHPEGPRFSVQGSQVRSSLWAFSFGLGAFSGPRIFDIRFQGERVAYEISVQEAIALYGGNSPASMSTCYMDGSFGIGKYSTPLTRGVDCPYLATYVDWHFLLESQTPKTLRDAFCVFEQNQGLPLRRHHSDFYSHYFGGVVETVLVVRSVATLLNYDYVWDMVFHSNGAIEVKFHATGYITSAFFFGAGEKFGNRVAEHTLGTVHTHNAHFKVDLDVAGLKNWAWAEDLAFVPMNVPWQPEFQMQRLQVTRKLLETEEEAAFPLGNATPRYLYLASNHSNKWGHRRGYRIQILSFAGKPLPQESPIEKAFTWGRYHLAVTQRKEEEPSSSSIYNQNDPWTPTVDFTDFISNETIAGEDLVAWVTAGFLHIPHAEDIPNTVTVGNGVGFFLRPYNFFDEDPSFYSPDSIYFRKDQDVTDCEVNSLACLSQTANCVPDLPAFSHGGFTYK
Experiment: In vivo inhibition of SSAO after single oral dose, radioactive assay
Settings: 4 hrs after treatment
Procedure: In vivo inhibition of SSAO was assessed in rat aorta and lungs, two of the tissues where SSAO activity is highest. Six week old female Sprague Dawley rats were administered 0, 0.1, 1, 10 and 50 mg/kg of the compound of example 8 in 2.5 ml/kg PBS by oral gavage. Four hours after compound administration the animals were euthanized and their aortas and lungs removed and frozen in liquid nitrogen. Tissues were homogenized in 0.1 M potassium phosphate pH 7.8 buffer (30 ml/g for aorta and 20 ml/g for lung) and centrifuged at 1000×g for 15 min. Supernatants were collected and used in the radioactive assay following the protocol described by Lizcano J. M. et al. (1998) Biochem. J. 331:69. Enzymatic reactions were initiated by incubating a 200 μl aliquot of the tissue homogenate with 20 μl of 0.4 mM ^14C-labeled benzylamine substrate (6 mCi/mmol specific activity, Pharmacia) for 30 min at RT. The assay was stopped by addition of 100 μl of 2 M citric acid, the assay volume was extracted with 5 ml toluene:ethyl acetate (1:1) containing 0.6% (w/v) 2,5-diphenyloxdazole (PPO), and an aliquot of the organic layer was counted by liquid scintillation. […] These inhibitors were added to the tissue supernatant prior to addition of benzylamine.

## C=C(CNN)c1ccc(F)cc1.Cl [Example 8, N-[2-(4′-fluorophenyl)-allyl]-hydrazine Hydrochloride]
Rat aorta
  ED50, in vivo inhibition of SSAO activity in aorta: 5 mg/kg
Rat lung
  ED50, in vivo inhibition of SSAO activity in lung: 0.72 mg/kg
